Measurements reported in patent publication US20250049809A1, “INHIBITORS OF MUTANT IDH1 AND IDH2” (Board of Regents, The University of Texas System, priority 2023, published 2025).

What was measured:
TF1 IDH2R140Q = TF1 IDH2R140Q (Homo sapiens (Human), UniProt P48735, R140Q); experiment: TF1 IDH2 R140Q 2-HG cellular assay; assay type: cell-based; conditions: extracellular 2HG, 24 hr treatment, IDH2 mutant-TF1 isogenic cell line
Description: The IDH2 mutant-TF1 isogenic cell line (ATCC CRL-20031G) used to test cellular inhibition is an erythroblast cell line that was isolated from the marrow of a patient with erythroleukemia with the IDH2R140Q mutation. These cells are maintained in RPMI-1640 (ATCC 30-2001) culture media with 10% FBS, 10 U/mL Penicillin-Streptomycin, and 2 ng/mL GM-CSF. Thirty thousand cells are plated in polystyrene tissue culture treated 384 well cell culture plates (PerkinElmer 6007680) (30,000 cells/well) approximately 2 hours before compound treatment. Cells are then treated with different concentrations of test compounds (5 μM to 0.3 pM) for 24 hr. Extracellular 2HG levels are measured from cell culture media. For analyte extraction, 30 μL of culture media is transferred to 120 μL 100% acetonitrile in a deep 384 well plate and mixed well, followed by 5 min centrifugation at 3700 rpm at room temperature. 100 μL of supernatant is transferred to a flat bottom 384 well plate. Samples are run on the Agilent RapidFire-Mass Spectrometry instrument to detect 2HG levels. The samples from each well were aspirated for 600 ms and loaded onto a HILIC solid-phase extraction cartridge (Agilent) followed by a wash step for 3000 ms with 90% acetonitrile containing 5 mM ammonium acetate. Analytes were then eluted off the cartridge into the Agilent 6460 Triple Quad mass spectrometer with a 4500 ms elution step using 30% acetonitrile containing 5 mM ammonium acetate. The HILIC cartridge was then re-equilibrated by 90% acetonitrile containing 5 mM ammonium acetate for 500 ms. The 2HG was detected by an Agilent 6460 Triple Quad mass spectrometer in negative ion mode. Multiple reaction monitoring was used to quantify 2HG using the precursor ion and product ion at m/z 147.03 and 128.9, respectively. The percent activity of each sample is calculated by using DMSO and control compound treated references, and IC50 values are obtained using the GeneData Screener data analysis program.

WT IDH1 = WT IDH1 (Homo sapiens (Human), UniProt O75874); experiment: WT IDH1 enzymatic activity assay (NADPH fluorescence); assay type: biochemical; conditions: enzyme assay
Description: (§1) The enzymatic activity of WT IDH1 was assessed by measuring the fluorescence of the NADPH generated in the enzymatic reaction. The assay was performed in 384 well, white ProxiPlates (PerkinElmer, 6008280) in assay buffer containing 50 mM Hepes (Life Technologies, 15630080), 50 mM KCl (Teknova, P0327), 10 mM MgCl2 (Sigma-Aldrich, M1028), 1 mM DTT (Sigma-Aldrich, 43815), 0.02% BSA (Sigma-Aldrich, A3059) at pH 7.5. The final reaction volume was 10 μL. Stock solutions of the test compounds were prepared in 100% DMSO (Sigma, D2650) and serially diluted 1:3 using 100% DMSO. 50 nL of compound were then transferred to the assay plate using the Beckman Coulter ECHO 650 Acoustic Liquid Handler for a final DMSO concentration of 0.5%. 5 μL of WT IDH1 were added to the assay plate for a final concentration of 0.5 nM. 5 μL of assay buffer alone were added to negative control wells. 5 μL of an isocitrate (Sigma-Aldrich, 58790) and NADP (Sigma-Aldrich, N5755) mixture were added to the assay plate for a final concentration of 5 μM and 15 μM, respectively. Fluorescence of NADPH (excitation: 350 nm, emission 450 nm) was immediately measured kinetically for approximately 15 minutes using the BioTek Synergy Neo plate reader.

mIDH1R132H = mIDH1R132H (Homo sapiens (Human), UniProt O75874, R132H); experiment: mIDH1 R132H enzymatic activity assay (NADPH fluorescence); assay type: biochemical; conditions: enzyme assay; read-out: IDH1R132H IC50
Description: The enzymatic activity of mIDH1R132H was assessed by measuring the fluorescence of the NADPH. The assay was performed in 384 well, white ProxiPlates (PerkinElmer, 6008280) in assay buffer containing 50 mM Hepes (Life Technologies, 15630080), 50 mM KCl (Teknova, P0327), 10 mM MgCl2 (Sigma-Aldrich, M1028), 1 mM DTT (Sigma-Aldrich, 43815), 0.02% BSA (Sigma-Aldrich, A3059) at pH 7.5. The final reaction volume was 10 μL. Stock solutions of the test compounds were prepared in 100% DMSO (Sigma, D2650) and serially diluted 1:3 using 100% DMSO. 50 nL of compound were then transferred to the assay plate using the Beckman Coulter ECHO 650 Acoustic Liquid Handler for a final DMSO concentration of 0.5%. […] a mIDH1R132H and NADPH (Santa Cruz, SC202725C) mixture were added to the assay plate for a final concentration of 10 nM and 20 μM, respectively. 5 μL of NADPH alone were added to negative control wells. 5 μL of alphaketoglutarate (Sigma-Aldrich, K1128) were added to the assay plate for a final concentration of 200 μM. Fluorescence of NADPH (excitation: 350 nm, emission 450 nm) was immediately measured kinetically for approximately 60 minutes using the BioTek Synergy Neo plate reader.

WT IDH2 = WT IDH2 (Homo sapiens (Human), UniProt P48735); experiment: WT IDH2 enzymatic activity assay (NADPH fluorescence); assay type: biochemical; conditions: enzyme assay
Description: as §1, with “IDH2” for “IDH1”

WT IDH1, sequence (O75874 whole entry): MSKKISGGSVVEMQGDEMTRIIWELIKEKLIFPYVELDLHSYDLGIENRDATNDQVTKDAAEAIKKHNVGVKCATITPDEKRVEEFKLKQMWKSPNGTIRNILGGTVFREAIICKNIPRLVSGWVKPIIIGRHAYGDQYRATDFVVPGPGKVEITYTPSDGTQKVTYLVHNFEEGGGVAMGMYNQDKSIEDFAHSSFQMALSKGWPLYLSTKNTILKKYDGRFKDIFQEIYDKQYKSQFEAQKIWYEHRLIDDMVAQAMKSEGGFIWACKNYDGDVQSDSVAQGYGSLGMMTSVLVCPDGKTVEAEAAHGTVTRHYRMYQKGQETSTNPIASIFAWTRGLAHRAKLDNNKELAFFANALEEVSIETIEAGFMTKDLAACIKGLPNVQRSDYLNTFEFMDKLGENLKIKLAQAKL
WT IDH2, sequence (P48735 40-452): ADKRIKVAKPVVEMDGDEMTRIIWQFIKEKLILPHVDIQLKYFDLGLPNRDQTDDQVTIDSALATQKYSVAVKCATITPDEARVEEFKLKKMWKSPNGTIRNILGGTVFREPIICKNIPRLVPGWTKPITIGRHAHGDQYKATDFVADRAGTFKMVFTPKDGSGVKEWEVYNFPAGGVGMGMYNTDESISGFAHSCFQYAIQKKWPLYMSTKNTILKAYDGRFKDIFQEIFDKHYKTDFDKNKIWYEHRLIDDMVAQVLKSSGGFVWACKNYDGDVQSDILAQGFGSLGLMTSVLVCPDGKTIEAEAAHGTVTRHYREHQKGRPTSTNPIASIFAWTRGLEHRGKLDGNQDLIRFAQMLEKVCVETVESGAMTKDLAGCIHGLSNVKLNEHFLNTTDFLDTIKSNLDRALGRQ
mIDH1R132H, sequence (O75874 whole entry R132H): as the sequence (O75874 whole entry) above, with R132H counted along it
TF1 IDH2R140Q, sequence (P48735 40-452 R140Q): as the sequence (P48735 40-452) above, with R101Q counted along it

Row | IC50 (TF1 IDH2R140Q) | IC50 (WT IDH1) | IC50 (mIDH1R132H) | IC50 (WT IDH2) | SMILES
1 | 277 nM | 3170 nM | 3.3 nM | 16200 nM | C=CC(=O)N1CCN(C2CCCC/C=C/CN3C(=O)OCc4cnc(nc43)N[C@@H](C)c3ccc2cc3)CC1 (stereo partly drawn) [Example 3, (3S,E)-5-(4-acryloylpiperazin-1-yl)-3-methyl-1^1,1^4-dihydro-1^2H-2-aza-1(7,1)-pyrimido[4,5-d][1,3]oxazina-4(1,4)-benzenacyclododecaphan-10-en-1^2-one]
2 | 282 nM | > 16700 nM | 4 nM | 41200 nM | C=CC(=O)N1CCN(C2CCCCCCCN3C(=O)OCc4cnc(nc43)N[C@@H](C)c3ccc2cc3)CC1 (stereo partly drawn) [Example 4, (3S)-5-(4-acryloylpiperazin-1-yl)-3-methyl-1^1,1^4-dihydro-1^2H-2-aza-1(7,1)-pyrimido[4,5-d][1,3]oxazina-4(1,4)-benzenacyclododecaphan-1^2-one]
